Laboratory results: PMC5996347, “2-Mercapto-Quinazolinones as Inhibitors of Type II NADH Dehydrogenase and Mycobacterium tuberculosis: Structure–Activity Relationships, Mechanism of Action and Absorption, Distribution, Metabolism, and Excretion Characterization” (ACS Infectious Diseases, 2018)
In brackets after ≈: the same amount, converted by molar mass.

How the values were obtained:
M. tuberculosis H37Rv [1] = assay: H37Rv MIC in GAST medium; format: cell-based, Mycobacterium tuberculosis; conditions: Mycobacterium tuberculosis, H37RV; read-out: GAST MIC
M. tuberculosis H37Rv [2] = assay: microbe, parasite or virus in culture; format: cell-based; conditions: Mycobacterium tuberculosis, read-out: 7H9-ADC MIC
[3] = format: in vitro ADME; conditions: female, CD1, mouse, 0.5 μM, pH 7.4
Procedure: Test compound (0.5 μM) was incubated with female CD1 mouse liver microsomes (Xenotech LLC; 0.5 mg/mL, 50 mM potassium phosphate buffer, pH 7.4), and the reaction started with addition of excess NADPH (8 mg/mL, 50 mM potassium phosphate buffer, pH 7.4). Immediately, at time zero, and then at 3, 6, 9, 15, and 30 min, an aliquot (50 μL) of the incubation mixture was removed and mixed with acetonitrile (100 μL) to stop the reaction. Internal standard was added to all samples; the samples were centrifuged to sediment precipitated protein, and the plates were then sealed prior to UPLC-MS/MS analysis using a Quattro Premier XE (Waters Corporation, USA). XLfit (IDBS, UK) was used to calculate the exponential decay and consequently the rate constant (k) from the ratio of peak area of test compound to internal standard at each time point. The rate of intrinsic clearance (Cli) of each test compound was then calculated using the following calculation. [drawing 1] where V (mL/mg protein) is the incubation volume/mg protein added and microsomal protein yield is taken as 52.5 mg protein/g liver. Verapamil (0.5 μM) was used as a positive control to confirm acceptable assay performance.

physchem = format: physicochemical; conditions: for solubility kinetic: water, kinetic from dmso stock
Procedure: The aqueous solubility of the test compounds was measured using laser nephelometry. Compounds were subject to serial dilution from 10 to 0.5 mM in DMSO. An aliquot was then mixed with Milli-Q water to obtain an aqueous dilution plate with a final concentration range of 250–12 μM, with a final DMSO concentration of 2.5%. Triplicate aliquots were transferred to a flat bottomed polystyrene plate which was immediately read on the NEPHELOstar (BMG Lab Technologies). The amount of laser scatter caused by insoluble particulates (relative nephelometry units, RNU) was plotted against compound concentration using a segmental regression fit, with the point of inflection being quoted as the compounds aqueous solubility (μM).

[4] = Calculated properties (StarDrop)
[5] = target: T1, recombinant MBP-MtNdh (MTb NDH-2) (Mycobacterium tuberculosis, UniProt P95160); assay: Ndh activity assay (NADH oxidation at 340 nm); format: biochemical; conditions: NADH 250 μM, Q2 40 μM; mean ± SD, Figure 6 inset; read-out: IC50 against MBP-MtNdh
T1 construct: The ORF corresponding to Rv1854c was codon optimized for E. coli; made in house; host or cells: E. coli BL21 (DE3) pLysS
T1 sequence (P95160 whole entry): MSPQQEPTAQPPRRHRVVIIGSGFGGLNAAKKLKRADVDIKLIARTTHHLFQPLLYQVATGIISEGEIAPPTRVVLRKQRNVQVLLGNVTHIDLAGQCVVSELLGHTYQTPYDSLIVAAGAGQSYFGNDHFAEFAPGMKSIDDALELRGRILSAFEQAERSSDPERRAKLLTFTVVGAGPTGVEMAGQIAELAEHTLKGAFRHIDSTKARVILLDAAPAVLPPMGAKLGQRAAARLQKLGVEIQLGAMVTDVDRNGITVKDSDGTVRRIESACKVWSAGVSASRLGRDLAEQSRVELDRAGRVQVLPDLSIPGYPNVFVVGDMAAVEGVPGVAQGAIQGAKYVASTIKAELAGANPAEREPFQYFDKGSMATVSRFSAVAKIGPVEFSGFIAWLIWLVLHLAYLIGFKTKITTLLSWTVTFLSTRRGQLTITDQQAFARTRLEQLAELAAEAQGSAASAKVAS

With `CC(Sc1nc2ccccc2c(=O)[nH]1)C(=O)NC1CCCCC1` (stereo not shown) [Compound 15, N-Cyclohexyl-2-((4-oxo-3,4-dihydroquinazolin-2-yl)thio)propanamide] the MIC (M. tuberculosis H37Rv [1]) was 50 µM (≈ 16.6 µg/mL), the MIC (M. tuberculosis H37Rv [2]) was 50 µM (≈ 16.6 µg/mL) and the “Microsomal Cli, mouse” value [3] was 7.5 mL/min/g. For the same molecule, the Kinetic solubility (physchem) was 250 µM.

In the case of `O=C(CSc1nc2ccccc2c(=O)[nH]1)NCC1CCCCC1` [Compound 10, N-(Cyclohexylmethyl)-2-((4-oxo-3,4-dihydroquinazolin-2-yl)thio)acetamide], the MIC (M. tuberculosis H37Rv [1]) is reported as 0.2 µM (≈ 0.0663 µg/mL), the MIC (M. tuberculosis H37Rv [2]) is reported as 0.3 µM (≈ 0.0994 µg/mL) and the “Microsomal Cli, mouse” value [3] is reported as 5.9 mL/min/g.

In the case of `O=C(CSc1nc2ccccc2c(=O)[nH]1)NC1CCCC(F)(F)C1` (stereo not shown) [Compound 9, N-(3,3-Difluorocyclohexyl)-2-((4-oxo-3,4-dihydroquinazolin-2-yl)thio)acetamide], the MIC (M. tuberculosis H37Rv [1]) is reported as 4.7 µM (≈ 1.66 µg/mL), the MIC (M. tuberculosis H37Rv [2]) is reported as 4.7 µM (≈ 1.66 µg/mL) and the “Microsomal Cli, mouse” value [3] is reported as 2.9 mL/min/g. The solubility kinetic (physchem) was 187 µM (≈ 66.1 µg/mL).

For `Nc1nc(SCC(=O)NC2CCCCC2)nc2ccccc12` [Compound 22, 2-((4-Aminoquinazolin-2-yl)thio)-N-cyclohexylacetamide], the MIC (M. tuberculosis H37Rv [1]) was 50 µM (≈ 15.8 µg/mL) and the MIC (M. tuberculosis H37Rv [2]) was 50 µM (≈ 15.8 µg/mL).

With `O=C(CSc1nc2cnccc2c(=O)[nH]1)NC1CCC(F)(F)CC1` [Compound 27, N-(4,4-Difluorocyclohexyl)-2-((4-oxo-3,4-dihydropyrido[3,4-d]pyrimidin-2-yl)thio)acetamide] the MIC (M. tuberculosis H37Rv [1]) was 9.4 µM (≈ 3.33 µg/mL), the MIC (M. tuberculosis H37Rv [2]) was 2.5 µM (≈ 0.886 µg/mL) and the “Microsomal Cli, mouse” value [3] was 1.6 mL/min/g. The solubility kinetic (physchem) was 250 µM (≈ 88.6 µg/mL).

`O=C(COc1nc2ccccc2c(=O)[nH]1)NC1CCCCC1` [Compound 18, N-Cyclohexyl-2-((4-oxo-3,4-dihydroquinazolin-2-yl)oxy)acetamide] gave an MIC (M. tuberculosis H37Rv [1]) of 25 µM (≈ 7.53 µg/mL) and an MIC (M. tuberculosis H37Rv [2]) of 50 µM (≈ 15.1 µg/mL).

For `O=C(CSc1nc2ccccc2c(=O)[nH]1)NC1CCCCCC1` [Compound 4, N-Cycloheptyl-2-((4-oxo-3,4-dihydroquinazolin-2-yl)thio)acetamide], the MIC (M. tuberculosis H37Rv [1]) was 0.3 µM (≈ 0.0994 µg/mL), the MIC (M. tuberculosis H37Rv [2]) was 0.6 µM (≈ 0.199 µg/mL) and the “Microsomal Cli, mouse” value [3] was 6.4 mL/min/g. It also gave a solubility kinetic (physchem) of 39 µM (≈ 12.9 µg/mL).

In the case of `Cc1csc2nc(SCC(=O)NC3CCCCC3)[nH]c(=O)c12` [Compound 3], the MIC (M. tuberculosis H37Rv [1]) is reported as 43 µM (≈ 14.5 µg/mL), the MIC (M. tuberculosis H37Rv [2]) is reported as greater than 50 µM and the PFI [4] is reported as 4.7. For the same molecule, the IC50 [5] was 210 ± 25 nM.

With `O=C(CSc1nc2c(c(=O)[nH]1)CCC2)NC1CCCCC1` [Compound 24, N-Cyclohexyl-2-((4-oxo-4,5,6,7-tetrahydro-3H-cyclopenta[d]pyrimidin-2-yl)thio)acetamide] the MIC (M. tuberculosis H37Rv [1]) was 1.6 µM (≈ 0.492 µg/mL), the MIC (M. tuberculosis H37Rv [2]) was 1.2 µM (≈ 0.369 µg/mL) and the “Microsomal Cli, mouse” value [3] was 1.2 mL/min/g. It also gave a solubility kinetic (physchem) of 250 µM (≈ 76.9 µg/mL).

In the case of `CN(C(=O)CSc1nc2ccccc2c(=O)[nH]1)C1CCCCC1` [Compound 14, N-Cyclohexyl-N-methyl-2-((4-oxo-3,4-dihydroquinazolin-2-yl)thio)acetamide], the MIC (M. tuberculosis H37Rv [1]) is reported as 50 µM (≈ 16.6 µg/mL), the MIC (M. tuberculosis H37Rv [2]) is reported as 50 µM (≈ 16.6 µg/mL) and the “Microsomal Cli, mouse” value [3] is reported as 13 mL/min/g. For the same molecule, the Kinetic solubility (physchem) was 250 µM.

With `O=C(CSc1ncc2ccccc2n1)NC1CCCCC1` [Compound 21, N-Cyclohexyl-2-(quinazolin-2-ylthio)acetamide] the MIC (M. tuberculosis H37Rv [1]) was 50 µM (≈ 15.1 µg/mL) and the MIC (M. tuberculosis H37Rv [2]) was 50 µM (≈ 15.1 µg/mL).

With `O=C(CSc1nc2ccccc2c(=O)[nH]1)NC1CCCCC1(F)F` (stereo not shown) [Compound 8, N-(2,2-Difluorocyclohexyl)-2-((4-oxo-3,4-dihydroquinazolin-2-yl)thio)acetamide] the MIC (M. tuberculosis H37Rv [1]) was 9.4 µM (≈ 3.32 µg/mL), the MIC (M. tuberculosis H37Rv [2]) was 12.5 µM (≈ 4.42 µg/mL) and the “Microsomal Cli, mouse” value [3] was 2.3 mL/min/g. The solubility kinetic (physchem) was 219 µM (≈ 77.4 µg/mL).

In the case of `Cc1nc(SCC(=O)NC2CCCCC2)nc(O)c1C` [Compound 25, N-Cyclohexyl-2-((4,5-dimethyl-6-oxo-1,6-dihydropyrimidin-2-yl)thio)acetamide], the MIC (M. tuberculosis H37Rv [1]) is reported as 6.3 µM (≈ 1.86 µg/mL), the MIC (M. tuberculosis H37Rv [2]) is reported as 12.5 µM (≈ 3.69 µg/mL) and the “Microsomal Cli, mouse” value [3] is reported as 1.1 mL/min/g. For the same molecule, the solubility kinetic (physchem) was 250 µM (≈ 73.9 µg/mL).

For `O=C(CCc1nc2ccccc2c(=O)[nH]1)NC1CCCCC1` [Compound 19, N-Cyclohexyl-3-(4-oxo-3,4-dihydroquinazolin-2-yl)propanamide], the MIC (M. tuberculosis H37Rv [1]) was 50 µM (≈ 15 µg/mL), the MIC (M. tuberculosis H37Rv [2]) was 50 µM (≈ 15 µg/mL) and the “Microsomal Cli, mouse” value [3] was 1.6 mL/min/g. The solubility kinetic (physchem) was 250 µM (≈ 74.8 µg/mL).

With `O=C(CNc1nc2ccccc2c(=O)[nH]1)NC1CCCCC1` [Compound 17, N-Cyclohexyl-2-((4-oxo-3,4-dihydroquinazolin-2-yl)amino)acetamide] the MIC (M. tuberculosis H37Rv [1]) was 50 µM (≈ 15 µg/mL), the MIC (M. tuberculosis H37Rv [2]) was 50 µM (≈ 15 µg/mL) and the “Microsomal Cli, mouse” value [3] was 2.1 mL/min/g. For the same molecule, the solubility kinetic (physchem) was 250 µM (≈ 75.1 µg/mL).

With `O=C(CSc1nc2c(c(=O)[nH]1)CCCC2)NC1CCCCC1` [Compound 23, N-Cyclohexyl-2-((4-oxo-3,4,5,6,7,8-hexahydroquinazolin-2-yl)thio)acetamide] the MIC (M. tuberculosis H37Rv [1]) was 1.2 µM (≈ 0.386 µg/mL), the MIC (M. tuberculosis H37Rv [2]) was 1.6 µM (≈ 0.514 µg/mL) and the “Microsomal Cli, mouse” value [3] was 6.6 mL/min/g. For the same molecule, the solubility kinetic (physchem) was 250 µM (≈ 80.4 µg/mL).

In the case of `O=C(CSc1nc2ccc(F)cc2c(=O)[nH]1)NC1CCC(F)(F)CC1` [Compound 26, N-(4,4-Difluorocyclohexyl)-2-((6-fluoro-4-oxo-3,4-dihydroquinazolin-2-yl)thio)acetamide], the MIC (M. tuberculosis H37Rv [1]) is reported as 0.6 µM (≈ 0.223 µg/mL), the MIC (M. tuberculosis H37Rv [2]) is reported as 0.8 µM (≈ 0.297 µg/mL) and the “Microsomal Cli, mouse” value [3] is reported as 2.2 mL/min/g. For the same molecule, the solubility kinetic (physchem) was 55 µM (≈ 20.4 µg/mL).

In the case of `O=C(CSc1nc2ccccc2c(=O)[nH]1)NC1CCCC1` [Compound 5, N-Cyclopentyl-2-((4-oxo-3,4-dihydroquinazolin-2-yl)thio)acetamide], the MIC (M. tuberculosis H37Rv [1]) is reported as 1 µM (≈ 0.303 µg/mL), the MIC (M. tuberculosis H37Rv [2]) is reported as 1.8 µM (≈ 0.546 µg/mL) and the “Microsomal Cli, mouse” value [3] is reported as 2.5 mL/min/g. For the same molecule, the solubility kinetic (physchem) was 101 µM (≈ 30.6 µg/mL).

In the case of `CC(Sc1nc2ccccc2c(=O)[nH]1)C(=O)N(C)C1CCCCC1` (stereo not shown) [Compound 16, N-Cyclohexyl-N-methyl-2-((4-oxo-3,4-dihydroquinazolin-2-yl)thio)propanamide], the MIC (M. tuberculosis H37Rv [1]) is reported as 50 µM (≈ 17.3 µg/mL), the MIC (M. tuberculosis H37Rv [2]) is reported as 50 µM (≈ 17.3 µg/mL) and the “Microsomal Cli, mouse” value [3] is reported as 50 mL/min/g. It also gave a solubility kinetic (physchem) of 250 µM (≈ 86.4 µg/mL).

For `Cn1c(SCC(=O)NC2CCCCC2)nc2ccccc2c1=O` [Compound 20, N-Cyclohexyl-2-((3-methyl-4-oxo-3,4-dihydroquinazolin-2-yl)thio)acetamide], the MIC (M. tuberculosis H37Rv [1]) was 50 µM (≈ 16.6 µg/mL), the MIC (M. tuberculosis H37Rv [2]) was 50 µM (≈ 16.6 µg/mL) and the “Microsomal Cli, mouse” value [3] was 11 mL/min/g.

With `O=C(CSc1nc2ccccc2c(=O)[nH]1)NC1CCC1` [Compound 6, N-Cyclobutyl-2-((4-oxo-3,4-dihydroquinazolin-2-yl)thio)acetamide] the MIC (M. tuberculosis H37Rv [1]) was 1.6 µM (≈ 0.463 µg/mL), the MIC (M. tuberculosis H37Rv [2]) was 1.6 µM (≈ 0.463 µg/mL) and the “Microsomal Cli, mouse” value [3] was 1.8 mL/min/g. It also gave a solubility kinetic (physchem) of 219 µM (≈ 63.4 µg/mL).
